Data from US20080269204A1, “Compounds and Methods of Use Thereof” (priority 2004, published 2008).

Test system: TNF-α production by PMBC
Assay: Inhibition of TNF-α production by peripheral blood monocyte cells (PMBC), LPS-stimulated
Format: cell-based
Details: 1 ug/mL LPS, 24 hours at 37° C, TNF-α quantified by EIA
Protocol: Inhibition of TNF-α Production By Peripheral Blood Monocyte Cells (PMBC)
PMBC in RPMI 1640 Cell Culture Medium (containing 1% Penicillin and 1% Streptomycin) are aliquoted into 96-well plates at 5×10^5 cells/well and pre-incubated with test compounds for 30 minutes at 37° C. After incubation, 1 ug/mL LPS is added to each well to stimulate TNF-α production and the plate is incubated for 24 hours at 37° C. After incubation, the supernatant is removed and the TNF-α secreted is quantified using EIA detection kits commercially available from R&D Systems (USA). The results from this assay are expressed as percent inhibition of control activity, with the control being stimulated wells with no test compound. Dexamethasone is used as a standard reference compound in the assay and is tested with each experiment. All test compounds are diluted from 10 mM stock solutions in 100% DMSO.

IC50 [nM] | Compound
700 | O=C1CSc2ccccc2N1CCCCCB(O)O [Example 4, 5-(2,3-dihydro-3-oxobenzo[b][1,4]thiazin-4-yl)pentylboronic acid]
74 | O=C1COc2cc([N+](=O)[O-])ccc2N1CCCCCB(O)O [Example 6, 5-(2,3-dihydro-7-nitro-3-oxobenzo[b][1,4]oxazin-4-yl)pentylboronic acid]
810 | CCOC(=O)CC1Sc2ccccc2N(CCCCCB(O)O)C1=O (stereo not drawn) [Example 8, ethyl 2-(3,4-dihydro-3-oxo-4-(5-pentylboronic acid)-2H-benzo[b][1,4]thiazin-2-yl)acetate]
360 | O=C1COc2ccccc2N1CCCCCB(O)O [Example 7, 5-(2,3-dihydro-3-oxobenzo[b][1,4]oxazin-4-yl)pentylboronic acid]
260 | O=C1COc2ccc(F)cc2N1CCCCCB(O)O [Example 3, 5-(6-fluoro-2,3-dihydro-3-oxobenzo[b][1,4]oxazin-4-yl)pentylboronic acid]
80 | O=C1CSc2cc(Cl)ccc2N1CCCCCB(O)O [Example 5, 5-(7-chloro-2,3-dihydro-3-oxobenzo[b][1,4]thiazin-4-yl)pentylboronic acid]
